Measured values published in patent US20250381196A1 (SHANGHAI YAO YUAN BIOTECHNOLOGY CO., LTD., priority 2022, published 2025).
pIC50: −log10 of the molar value. Structures can show the parent of a compound that is named as a salt.

Experiments:
ALPK1 = ALPK1 (Homo sapiens (Human), UniProt Q96QP1); assay: ALPK1 in vitro kinase assay (HTRF of TIFA phosphorylation); assay type: biochemical; conditions: ALPK1 2 nM activated by ADP-Heptose, TIFA substrate
Protocol: ALPK1 in vitro Kinase Assay
ALPK1 kinase activity was measured in an in vitro assay using ADP-Heptose as the ALPK1 ligand and activator of its kinase activity and TIFA protein as the ALPK1 phosphorylation substrate. Since phosphorylated TIFA proteins oligomerize, Homogeneous Time-Resolved Fluorescence (HTRF) was used to measure protein: protein interaction between HA-tagged TIFA proteins as an indicator of TIFA phosphorylation.
In brief, dose-response studies were performed in 384-well assay plates. Each well contained 0.1 mg TIFA, ALPK1 (2 nM final concentration in reaction mixture) and kinase buffer (100 mM of HEPES pH 7.4, 4 mM DTT, 40 mM MgCl2, 20 mM of β-Glycerol phosphate disodium salt, 0.4 mM of Na3VO4, 0.16 mg/mL). Titrations of the test compounds were prepared in dimethylsulphoxide (DMSO). The reaction was initiated by addition of ATP and ADP-Heptose.
For HTRF, samples were incubated with a Tb cryptate-labeled anti-HA antibody for capturing HA-tagged proteins according to the manufacturer's instructions (PerkinElmer™, CisBio™) and the fluorescence signal was quantified (Tecan Infinite F NANO+). HTRF signals were calculated as the HTRF ratio (ratio of fluorescence measured at 665 nm and 620 nm)×104 (thereby using the signal at 620 nm as an internal standard).
IC50 values were determined using 3- or 4-parameter logistic equation using GraphPad Prism version 6.00. The reference compound, A027, was used as a positive control for each plate.

[1] = system: ALPK1-dependent NFκB reporter gene activation in HEK293 cells stably expressing an NF-kB reporter (G9 cells); assay: NFκB gene reporter alkaline phosphatase assay; assay type: cell-based; conditions: Homo sapiens, read-out: NFKB assay IC50
Protocol: NFκB Gene Reporter Alkaline Phosphatase Assay
An alkaline phosphatase reporter assay system was used to measure inhibition of ALPK1-dependent NFκB reporter gene activation. Briefly, HEK293 cells stably expressing an NF-kB reporter (referred to herein as “G9 cells”) were maintained in Dulbecco's Modified Eagle Medium (DMEM) supplemented with 10% fetal bovine serum (FBS, Hyclone™) containing antibiotics (pen/strep, G418) […]. For the assay, cells were seeded into 96-well plates at a density of 10,000 cells/well in Freestyle™ 293 Expression Medium (ThermoFisher) and allowed to attach overnight. […] NFkB gene activation was detected using the chromogenic substrate, para-nitrophenyl phosphate (pNPP) according to the manufacturer's protocols (pNPP Phosphatase Assay, Beyotime Biotechnology).

[2] = system: ALPK1-dependent gene expression in kidney; assay: Inhibition of ALPK1 in kidney: ALPK1 agonist-induced gene expression in rats; assay type: in vivo, Sprague-Dawley (SD) rats; conditions: SD rats, oral 2, 5, 10, 20 mpk 21 h before ip ALPK1 agonist, kidneys 3 h after agonist; relative to vehicle group
[3] = system: lupus nephritis in MRL/MpJ-Faslpr/J mice; assay: MRL/MpJ-Faslpr/J mouse lupus nephritis model; assay type: in vivo
Source text: After 8 weeks of treatment, the animals were sacrificed, and their urine was collected for proteinuria assessment using Urine Protein Test Strips (FIG. 9). The right kidneys were harvested and stained by hematoxylin and eosin (H&E) for pathological evaluation (FIG. 10A-G).

[4] = system: UUO induced kidney fibrosis; conditions: rat UUO
Source text: Briefly, we ligated the left ureter of rat and then start the daily oral treatment right after the surgery for 7 days, and then measure the kidney fibrosis by hydroxyproline content measurement and Sirus red staining. Because of the amount of renal inflammation, we used hydroxyproline (OH-P) content indexed to total protein for interpretation of UUO-induced fibrosis and compound efficacy (FIG. 3A) For completeness, we also analyzed the OH-P content indexed to tissue mass (FIG. 3B).

[5] = system: adenine diet induced rat CKD model
Source text: We started compound dosing from day 14 after adenine diet inception for 6 weeks. During the study, we collected plasma and measure the Blood Urea Nitrogen (BUN) (FIG. 6A) and creatine (FIG. 6B) level weekly.

[6] = 10 mg/kg oral daily, 8 weeks, kidney H&E
[7] = daily oral treatment for 7 days, C008 at 7 mpk & 20 mpk

Sequence of ALPK1 (Q96QP1 whole entry): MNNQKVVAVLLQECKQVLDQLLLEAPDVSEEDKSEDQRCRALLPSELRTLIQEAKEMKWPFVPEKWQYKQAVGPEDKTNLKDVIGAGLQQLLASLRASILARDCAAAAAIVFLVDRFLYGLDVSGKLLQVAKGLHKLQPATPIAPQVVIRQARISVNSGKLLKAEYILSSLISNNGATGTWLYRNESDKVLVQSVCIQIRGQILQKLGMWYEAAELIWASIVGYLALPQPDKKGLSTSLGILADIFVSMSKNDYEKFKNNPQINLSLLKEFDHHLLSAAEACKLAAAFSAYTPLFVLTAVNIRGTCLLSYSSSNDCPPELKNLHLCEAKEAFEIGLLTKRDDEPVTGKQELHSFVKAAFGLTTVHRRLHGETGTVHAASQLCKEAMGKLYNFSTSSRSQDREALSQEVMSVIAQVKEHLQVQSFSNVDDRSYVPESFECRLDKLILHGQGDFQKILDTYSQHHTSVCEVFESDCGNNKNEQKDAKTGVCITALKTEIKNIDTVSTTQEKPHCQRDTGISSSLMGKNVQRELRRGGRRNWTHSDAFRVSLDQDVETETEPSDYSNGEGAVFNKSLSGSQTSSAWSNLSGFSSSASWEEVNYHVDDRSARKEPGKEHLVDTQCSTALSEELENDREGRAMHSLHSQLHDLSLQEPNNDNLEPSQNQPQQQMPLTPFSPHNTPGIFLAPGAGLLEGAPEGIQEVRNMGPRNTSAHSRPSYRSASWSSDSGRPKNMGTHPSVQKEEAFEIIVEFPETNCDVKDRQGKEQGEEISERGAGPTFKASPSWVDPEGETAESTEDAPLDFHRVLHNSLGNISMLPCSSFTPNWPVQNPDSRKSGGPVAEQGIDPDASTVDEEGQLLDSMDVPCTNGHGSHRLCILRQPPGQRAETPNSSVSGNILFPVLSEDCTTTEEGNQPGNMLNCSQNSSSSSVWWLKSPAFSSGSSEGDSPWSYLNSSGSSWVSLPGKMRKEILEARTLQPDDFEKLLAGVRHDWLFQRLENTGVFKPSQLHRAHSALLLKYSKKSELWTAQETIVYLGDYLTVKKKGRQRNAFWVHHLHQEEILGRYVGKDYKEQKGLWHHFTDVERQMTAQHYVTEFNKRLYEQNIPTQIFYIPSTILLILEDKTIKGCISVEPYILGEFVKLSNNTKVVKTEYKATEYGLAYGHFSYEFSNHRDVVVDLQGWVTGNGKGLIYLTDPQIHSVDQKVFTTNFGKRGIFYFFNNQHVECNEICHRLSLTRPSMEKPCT

C#C[C@@](C)(c1ccc(F)cc1)c1csc(NC(=O)c2ccc(N3CCNCC3CO)cc2)n1 (stereo in doubt) [Example B070, N-[4-[1-(4-fluorophenyl)-1-methyl-prop-2-ynyl]thiazol-2-yl]-4-[2-(hydroxymethyl)piperazin-1-yl]benzamide]
pIC50 (ALPK1): 6.77

C#C[C@](C)(c1ccc(Cl)cc1)c1csc(NC(=O)c2c(F)cc(N3CCN(C)CC3)cc2F)n1 (stereo in doubt) [Example C009, N-(4-(2-(4-chlorophenyl)but-3-yn-2-yl)thiazol-2-yl)-2,6-difluoro-4-(4-methylpiperazin-1-yl)benzamide]
pIC50 (ALPK1): 8.15

C#C[C@](C)(c1ccc(Cl)cc1)c1nc(NC(=O)c2c(F)cc(N3CCNCC3)cc2F)sc1Cl (stereo in doubt) [Example C050, N-(5-chloro-4-(2-(4-chlorophenyl)but-3-yn-2-yl)thiazol-2-yl)-2,6-difluoro-4-(piperazin-1-yl)benzamide]
pIC50 (ALPK1): 6.03

COc1ccc(C(C)(C)c2csc(NC(=O)NCc3cc(F)c(C4CCNCC4)c(F)c3)n2)cc1 [Example A151, 1-(3,5-difluoro-4-(piperidin-4-yl)benzyl)-3-(4-(2-(4-methoxyphenyl)propan-2-yl)thiazol-2-yl)urea hydrochloride]
pIC50 [1]: 6.02

COc1ccc(C(C)(C)c2csc(NC(=O)NCc3cc(F)c(N4CCNCC4)cc3F)n2)cc1 [Example A231, 1-(2,5-difluoro-4-(piperazin-1-yl)benzyl)-3-(4-(2-(4-methoxyphenyl)propan-2-yl)thiazol-2-yl)urea hydrochloride]
pIC50 [1]: 5.47

COc1ccc(C(C)(C)c2csc(NC(=O)N3CC(c4ccc(N5CCNCC5)cc4)C3)n2)cc1 [Example A233, N-(4-(2-(4-methoxyphenyl)propan-2-yl)thiazol-2-yl)-3-(4-(piperazin-1-yl)phenyl)azetidine-1-carboxamide]
pIC50 [1]: 6.48

COc1ccc(C(C)(C)c2csc(NC(=O)c3ccc(N4CCC(O)C4)cc3)n2)cc1 (centres unmarked) [Example B009, 4-(3-hydroxypyrrolidin-1-yl)-N-(4-(2-(4-methoxyphenyl)propan-2-yl)thiazol-2-yl)benzamide]
pIC50 (ALPK1): 7.02

COc1ccc(C(C)(C)c2csc(NC(=O)c3ccc(N4CCNCC4C)cc3)n2)cc1 (centres unmarked) [Example B014]
pIC50 (ALPK1): 6.52

C#C[C@@](C)(c1ccc(Cl)cc1)c1csc(NC(=O)c2c(F)cc(N3CCNCC3)cc2F)n1 [Example C008, (S)-N-(4-(2-(4-chlorophenyl)but-3-yn-2-yl)thiazol-2-yl)-2,6-difluoro-4-(piperazin-1-yl)benzamide]
mRNA expression for CCL-2, CCL-7, CXCL-1, CXCL-10, IL-1β and IL-6 in kidney [2]: significant decreases | proteinuria scores ([3]; 10 mg/kg oral daily, 8 weeks, compared to vehicle disease group): significant reduction | pathological score: crescent [3, 6]: significantly lower | pathological score: glomerulus diameter [3, 6]: significantly lower | pathological score: interstitial inflammation [3, 6]: significantly lower | pathological score: protein cast [3, 6]: significantly lower | mRNA expression of Ccl2, Ccl4, Ccl5, Ccr1 and IL-6 in kidney ([3]; left kidneys, qPCR, after 8 weeks, relative to vehicle group): significant decreases | UUO induced kidney fibrosis ([4]; C008 2, 7, 20 mg/kg): dose dependently suppress | UUO-induced increases in renal cortical CVF (Collagen Volume Fraction, Sirus Red) [4, 7]: attenuated | UUO-induced increases in renal cortical OH-P (hydroxyproline) [4, 7]: attenuated | kidney expression of genes involved in fibrosis and inflammation ([4]; separate study, C008 5, 10, 20 mg/kg): inhibited | adenine-induced increases in renal cortical CVF ([5]; rat adenine diet, end of study, C008 at 7 and 20 mpk): attenuated | adenine-induced increases in plasma creatinine ([5]; rat adenine diet, ALK5i: days 35-56, C008: days 35 (20 mpk), 49 & 56 (7&20 mpk)): attenuated | adenine-induced increases in plasma BUN ([5]; rat adenine diet, ALK5i: days 35-56, C008: days 42 (20 mpk), 49 (7&20 mpk), 56 (20 mpk)): attenuated | adenine diet induced kidney dysfunction and kidney fibrosis ([5]; rat, C008 7, 20 mg/kg, dosing from day 14 for 6 weeks): significantly inhibit
